Activity calls are given as the source filed them. Rule as the data show it: actives have a measured IC50 and inactives only a lower limit.

For the assay, the target named is Envelope glycoprotein gp160 (Human immunodeficiency virus 1, UniProt Q6QLK5). The experiment in a line: inhibitors of HIV fusion peptide binding, primary screen, biochemical, uHTS, fluorescence dequenching (AID 1986).
Envelope glycoprotein gp160, sequence (Q6QLK5 whole entry, the tested form may be a part): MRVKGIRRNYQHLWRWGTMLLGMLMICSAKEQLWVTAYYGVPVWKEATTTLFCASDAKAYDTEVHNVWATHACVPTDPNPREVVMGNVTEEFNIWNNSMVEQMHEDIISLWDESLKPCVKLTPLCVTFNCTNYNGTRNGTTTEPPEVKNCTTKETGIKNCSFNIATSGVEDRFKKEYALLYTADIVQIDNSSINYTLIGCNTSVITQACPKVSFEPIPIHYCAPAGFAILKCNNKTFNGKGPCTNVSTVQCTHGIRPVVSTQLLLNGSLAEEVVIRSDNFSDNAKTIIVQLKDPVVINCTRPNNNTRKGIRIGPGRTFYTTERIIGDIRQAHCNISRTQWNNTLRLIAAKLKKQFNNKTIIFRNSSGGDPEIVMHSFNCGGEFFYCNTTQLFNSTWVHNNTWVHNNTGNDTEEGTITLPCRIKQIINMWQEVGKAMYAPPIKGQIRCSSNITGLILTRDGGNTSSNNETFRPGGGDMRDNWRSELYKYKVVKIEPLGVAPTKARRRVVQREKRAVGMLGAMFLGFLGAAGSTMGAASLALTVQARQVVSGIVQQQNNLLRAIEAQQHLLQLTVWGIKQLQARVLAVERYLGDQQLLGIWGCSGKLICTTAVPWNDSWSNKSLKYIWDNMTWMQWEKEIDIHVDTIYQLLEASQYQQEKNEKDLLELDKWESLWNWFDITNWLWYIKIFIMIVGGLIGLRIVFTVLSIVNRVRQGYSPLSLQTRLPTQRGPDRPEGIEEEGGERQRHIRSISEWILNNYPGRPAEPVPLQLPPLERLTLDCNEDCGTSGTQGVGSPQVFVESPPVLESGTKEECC
Regarding `Cc1ccc(-n2cccc2/C=C2/C(=N)N3C(=NC2=O)SN=C3S(C)(=O)=O)cc1Cl`, the 50% inhibitory concentration (IC50) (in general, the point on the concentration scale where inhibition reaches its midpoint) is 6.32 µM (active). The result for `O=C1NN(c2ccc(Cl)c(Cl)c2)C(=O)/C1=C/c1ccc(-c2ccccc2C(=O)O)o1` reads 15.7 µM (active). The result for `COc1cc(/C=C2\C(=N)N3N=C(S(C)(=O)=O)SC3=NC2=O)cc(OC)c1OCCOc1ccccc1C` reads 14.6 µM (active); that for `O=C(O)c1cccc(NC(=S)N/N=C/c2ccccc2OCc2cccc(Br)c2)c1`, 13.2 µM (active).

Source of the values: ChEMBL document CHEMBL1201862, “PubChem BioAssay data set” (2004).
